Assay [1] deals with T1, BTK (Homo sapiens (Human), UniProt Q06187). Put plainly: In Vitro PD Assay in Human Whole Blood (pBTK assay). The class given is cell-based. Conditions: 37° C. for 30 min, 50% inhibition of ECL signal. The procedure:
Human heparinized venous blood was purchased from Bioreclamation, Inc. or SeraCare Life Sciences and shipped overnight. Whole blood was aliquoted into 96-well plate and “spiked” with serial dilutions of test compound in DMSO or with DMSO without drug. The final concentration of DMSO in all wells was 0.1%. The plate was incubated at 37° C. for 30 min. Lysis buffer containing protease and phosphatase inhibitors was added to the drug-containing samples and one of the DMSO-only samples (+PPi, high control), while lysis buffer containing protease inhibitors was added to the other DMSO-only samples (−PPi, low control). All of the lysed whole blood samples were subjected to the total BTK capture and phosphotyrosine detection method described in US20160311802, incorporated herein by reference.

The target of assay [2] is T1, BTK. Briefly: In Vitro BTK Kinase Assay: BTK-POLYGAT-LS ASSAY. Type of assay: biochemical. Conditions: ATP 10 μM, polyGAT 100 nM, BTK 0.25 nM, 30 minutes. The method, then:
The purpose of the BTK in vitro assay is to determine compound potency against BTK through the measurement of IC50. […] The BTK kinase reaction was done in a black 96 well plate (costar 3694). For a typical assay, a 24 μL aliquot of a ATP/peptide master mix (final concentration; ATP 10 μM, polyGAT 100 nM) in kinase buffer (10 mM Tris-HCl pH 7.5, 10 mM MgCl2, 200 μM […], 5 mM DTT, 0.01% Triton X-100, and 0.2 mg/ml casein) is added to each well. Next, […] of a 4-fold, 40× compound titration in 100% DMSO solvent is added, followed by adding 15 μL of BTK enzyme mix in 1× kinase buffer (with a final concentration of 0.25 nM). The assay is incubated for 30 minutes before being stopped with […] of a 50 mM EDTA solution. Aliquots (5 μL) of the kinase reaction are transferred to a low volume white 384 well plate (Coming 3674), and […] of a 2× detection buffer (Invitrogen PV3574, with 4 nM Tb-PY20 antibody, Invitrogen PV3552) is added. The plate is covered and incubated for 45 minutes at room temperature. Time resolved fluorescence (TRF) on Molecular Devices M5 (332 nm excitation; 488 nm emission; 518 nm fluorescein emission) is measured.

As a reminder, the IC50 is the concentration that inhibits the measured activity by half. Lower therefore signals higher potency.

T1 sequence (Q06187 whole entry): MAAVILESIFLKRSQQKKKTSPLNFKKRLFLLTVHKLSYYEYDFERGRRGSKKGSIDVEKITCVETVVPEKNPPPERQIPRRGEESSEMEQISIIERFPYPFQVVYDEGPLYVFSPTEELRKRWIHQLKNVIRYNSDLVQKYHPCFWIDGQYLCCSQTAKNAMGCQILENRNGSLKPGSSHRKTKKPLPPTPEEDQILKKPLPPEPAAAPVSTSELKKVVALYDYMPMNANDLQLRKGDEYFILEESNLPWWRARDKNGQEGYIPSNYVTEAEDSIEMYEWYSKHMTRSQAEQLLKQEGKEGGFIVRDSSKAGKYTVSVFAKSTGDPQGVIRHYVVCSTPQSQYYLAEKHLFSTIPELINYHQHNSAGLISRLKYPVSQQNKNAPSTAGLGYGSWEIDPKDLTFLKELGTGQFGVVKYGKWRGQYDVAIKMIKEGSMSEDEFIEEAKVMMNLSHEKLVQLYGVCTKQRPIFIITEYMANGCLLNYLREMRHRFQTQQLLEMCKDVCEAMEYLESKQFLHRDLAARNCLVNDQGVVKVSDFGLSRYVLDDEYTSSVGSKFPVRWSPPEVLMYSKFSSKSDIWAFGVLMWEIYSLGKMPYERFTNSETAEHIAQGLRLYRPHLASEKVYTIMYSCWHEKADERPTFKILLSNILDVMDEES

Take `Cc1cc(-c2ccnc(NC(=O)[C@H]3C[C@@H]3C)c2)ccc1CNC(=O)c1noc(C(C)(C)C)n1` [Compound 5, 5-(tert-butyl)-N-(2-methyl-4-(2-((1S,2S)-2-methylcyclopropane-1-carboxamido)pyridin-4-yl)benzyl)-1,2,4-oxadiazole-3-carboxamide]: the IC50 against BTK [1] was at most 0.1 µM; against BTK [2] it was at most 0.001 µM.
For `Cc1cc(-c2ccnc(NC(=O)C3CC3)c2F)ccc1CNC(=O)c1noc(C(C)(C)C)n1` [Compound 44, 5-(tert-butyl)-N-(4-(2-(cyclopropanecarboxamido)-3-fluoropyridin-4-yl)-2-methylbenzyl)-1,2,4-oxadiazole-3-carboxamide], the values for the IC50 on BTK [1] and against BTK [2] were 0.5 to 10 µM and 0.001 to 0.01 µM, respectively.
`Cc1c(CNC(=O)c2noc(C(C)(C)C)n2)ccc(-c2ccnc(NC(=O)C3CC3)c2)c1F` [Compound 11, 5-(tert-butyl)-N-(4-(2-(cyclopropanecarboxamido)pyridin-4-yl)-3-fluoro-2-methylbenzyl)-1,2,4-oxadiazole-3-carboxamide]: the values for the IC50 against BTK [1] and against BTK [2] were at most 0.1 µM and at most 0.001 µM, respectively.
On the same counts, the results for `CC(C)(C)c1nc(C(=O)N[C@@H]2CCCCc3cc(-c4ccnc(NC(=O)C5CC5)c4)ccc32)co1` [Compound 68, (R)-2-(tert-butyl)-N-(2-(2-(cyclopropanecarboxamido)pyridin-4-yl)-6,7,8,9-tetrahydro-5H-benzo[7]annulen-5-yl)oxazole-4-carboxamide] are 0.5 to 10 µM and at most 0.001 µM.
Regarding `Cc1cc(-c2ccnc(NC(=O)C3CC3)c2)ccc1CNC(=O)c1cnc(C(C)(C)C)s1` [Compound 81, 2-(tert-butyl)-N-(4-(2-(cyclopropanecarboxamido)pyridin-4-yl)-2-methylbenzyl)thiazole-5-carboxamide], the concentration for half-maximal inhibition (IC50) against BTK [1] fell in the range of 0.5 to 10 µM; on BTK [2], 0.001 to 0.01 µM.
Take `C[C@@H](NC(=O)c1noc(C(C)(C)C)n1)c1ccc(-c2cc(NC(=O)C3CC3)ncc2F)cc1Cl` [Compound 22, (R)-5-(tert-butyl)-N-(1-(2-chloro-4-(2-(cyclopropanecarboxamido)-5-fluoropyridin-4-yl)phenyl)ethyl)-1,2,4-oxadiazole-3-carboxamide]: the IC50 at BTK [1] was 0.1 to 0.5 µM; against BTK [2], at most 0.001 µM.
Regarding `Cc1c(CNC(=O)c2nc(C(C)(C)C)no2)ccc(-c2ccnc(NC(=O)C3CC3)c2)c1F` [Compound 94, 3-(tert-butyl)-N-(4-(2-(cyclopropanecarboxamido)pyridin-4-yl)-3-fluoro-2-methylbenzyl)-1,2,4-oxadiazole-5-carboxamide], the IC50 against BTK [1] was at most 0.1 µM; against BTK [2], at most 0.001 µM.
Consider `CC(C)(C)c1nc(C(=O)NCc2cc(F)c(-c3ccnc(NC(=O)C4CC4)c3)cc2Cl)no1` [Compound 104, 5-(tert-butyl)-N-(2-chloro-4-(2-(cyclopropanecarboxamido)pyridin-4-yl)-5-fluorobenzyl)-1,2,4-oxadiazole-3-carboxamide], for which the IC50 against BTK [1] is 0.1 to 0.5 µM; against BTK [2], at most 0.001 µM.
Take `CC(C)(C)c1ncc(C(=O)NCc2ccc(-c3ccnc(NC(=O)C4CC4)c3)c(F)c2C2CC2)o1` [Compound 30, 2-(tert-butyl)-N-(4-(2-(cyclopropanecarboxamido)pyridin-4-yl)-2-cyclopropyl-3-fluorobenzyl)oxazole-5-carboxamide]: the IC50 at BTK [1] is over 10 µM; against BTK [2], 0.001 to 0.01 µM.
`CC(C)(C)c1nc(C(=O)NC2CCCOc3cc(-c4ccnc(NC(=O)C5CC5)c4)ccc32)no1` (stereo not shown) [Compound 65, 5-(tert-butyl)-N-(8-(2-(cyclopropanecarboxamido)pyridin-4-yl)-2,3,4,5-tetrahydrobenzo[b]oxepin-5-yl)-1,2,4-oxadiazole-3-carboxamide]: the values for the IC50 against BTK [1] and against BTK [2] were 0.1 to 0.5 µM and at most 0.001 µM, respectively.
The matching figures for `Cc1cc(-c2cc(NC(=O)C3CC3)ncc2C(F)(F)F)ccc1CNC(=O)c1noc(C(C)(C)C)n1` [Compound 26, 5-(tert-butyl)-N-(4-(2-(cyclopropanecarboxamido)-5-(trifluoromethyl)pyridin-4-yl)-2-methylbenzyl)-1,2,4-oxadiazole-3-carboxamide]: over 10 µM and 0.001 to 0.01 µM.

The values are drawn from patent US12240838B2, “Inhibiting agents for Bruton's tyrosine kinase” (BIOGEN MA INC., priority 2019, dated 2025).
